What all share (assay): NCI-60 cell line screen, 48 h
The test system of experiment [1] is NCI/ADR-RES ovarian.
In experiment [2] the test system is HS 578T breast.
Experiment [3] has as its system BT-549 breast.
The test system of experiment [4] is DU-145 prostate.
For experiment [5], the system named is T-47D breast.
For experiment [6], the system named is MCF7 breast.
For experiment [7], the system named is MDA-MB-435.
Experiment [8] concerns M19-MEL melanoma.
The subject of experiment [9] is LXFL 529 NSCLC.
The subject of experiment [10] is SNB-78 CNS.

This passage reports TGI and GI50 results from PubChem BioAssay (NCI).

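In this assay, cells in 96-well plates receive the compound at five concentrations for 48 hours. Endpoints are linearly interpolated between the surrounding concentrations. At the GI50, growth is halved. TGI: total growth inhibition.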 Where only a bound is given, the exact number is not on record here.

In the case of `CCCC(=O)Nc1cc2c3c(c1)CCCN3CCC2`, the TGI in experiment [1], in experiment [2], in experiment [3], in [4], in experiment [5] and in experiment [6] was over 10 µM throughout. Besides, in [7], the TGI is over 10 µM.

On to `CN1C(=O)N(C)C2C1NN=c1s/c(=C\c3ccc(Cl)cc3Cl)c(=O)n12` (stereo unspecified), for which the GI50 in [1] is 0.13 µM; in [2], 0.173 µM; in experiment [3], 0.264 µM; in experiment [4], 0.334 µM; in experiment [5] it was 0.0576 µM; in experiment [6], 45 nM. The GI50 in experiment [7] was 33.3 nM. For the same compound, the TGI in [1] is 18.1 µM; in experiment [2], over 92.6 µM; in experiment [3], 12.8 µM; in experiment [4] it was over 20.5 µM; in experiment [5], over 100 µM; in experiment [6], over 48.3 µM. The compound further had a TGI in [7] of 2.11 µM.

In the case of `C=CCCCCOc1ccccc1-c1cnc(OCCCCC=C)n1C`, the GI50 in experiment [1] was 2.29 µM; in experiment [2], 4.13 µM; in [3], 4.15 µM; in experiment [4], 5.68 µM; in experiment [5], 3.53 µM; in experiment [6], 2890 nM. The GI50 in experiment [7] is 2080 nM. Besides, the TGI stood at 5.96 µM in experiment [1]; 23.7 µM in experiment [2]; 18.7 µM in experiment [3]; 22.3 µM in [4]; 29.5 µM in experiment [5]; 11.6 µM in experiment [6]. Besides, the TGI in experiment [7] stood at 5.22 µM.

With `COc1ccc(NC(=O)/C(Cc2cc(=O)oc3cc(O)ccc23)=N\NC(C)(C)C)c(OC)c1`, the TGI in [8], in experiment [9] and in experiment [10] was over 100 µM each time.

For `CO/N=C(\COc1ccc2c(c1)oc(=O)c1cc(OC)ccc12)c1ccc(OC)cc1`, the GI50 in [1] is over 100 µM; in experiment [2], over 100 µM; in experiment [3], over 100 µM; in experiment [4], over 100 µM; in [5] it was over 100 µM; in experiment [6] it was over 100000 nM. Further, in [7], the GI50 was over 100000 nM. The TGI in [1], in experiment [2], in experiment [3], in experiment [4], in experiment [5] and in experiment [6] was over 100 µM each time. Besides, the TGI in experiment [7] was over 100 µM.

As for `O=C(O)Cc1cc(Cl)ccc1O`, the TGI in experiment [1], in [2], in experiment [3], in [4], in [5] and in experiment [6] was over 100 µM in each case. This compound also returned a TGI in experiment [7] of over 100 µM.

As for `[Cl][Hg][c]1cc[c]([Hg][Cl])o1`, the GI50 in experiment [1] was 8.25 µM; in [2], 3.71 µM; in experiment [3], 1.99 µM; in experiment [4], 3.81 µM; in experiment [5] it was 1.18 µM; in experiment [6] it was 529 nM. Further, in [7], the GI50 is 3400 nM. Besides, the TGI is over 100 µM in experiment [1]; over 100 µM in experiment [2]; 8.67 µM in experiment [3]; 16.1 µM in [4]; 3.66 µM in [5]; 8.84 µM in [6]. In experiment [7], this compound returned a TGI of 14.4 µM.

`CCOC(=O)C(Cc1ccc(CCCC(=O)NCCC(=O)Nc2ccc3nc(C)sc3c2)cc1)C(=O)OCC`: the GI50 in [1] is 24.6 µM; in experiment [2] it was 68.3 µM; in experiment [3], 23.7 µM; in [4], 51.1 µM; in [5] it was 19.7 µM; in [6], 22200 nM. Besides, the GI50 in experiment [7] was 26000 nM. The TGI in experiment [1] is 69.1 µM; in experiment [2] it was over 100 µM; in [3], 72.8 µM; in [4], over 100 µM; in experiment [5], 74.1 µM; in experiment [6], 64.3 µM. This compound came in with a TGI in experiment [7] of 76.5 µM.

Take `Clc1ccc2[nH]cc(-c3nnnn3-c3ccccc3)c2c1`: the GI50 in experiment [1] is 7.61 µM; in experiment [2], 15.4 µM; in experiment [3], 22.2 µM; in experiment [4] it was 24.5 µM; in [5] it was over 45.3 µM; in [6], 29800 nM. The GI50 in experiment [7] is 1640 nM. Further, the TGI is 41.8 µM in experiment [1]; over 60.8 µM in experiment [2]; 68.9 µM in experiment [3]; over 76.6 µM in experiment [4]; over 100 µM in experiment [5]; over 100 µM in [6]. Also, in experiment [7], the TGI came out at 4.16 µM.

Turning to `O=C(CSc1nc2ccccc2nc1-c1ccccc1)Nc1ccc(F)cc1`, the GI50 is 29.9 µM in experiment [1]; 28.1 µM in [2]; 24.6 µM in [3]; 51 µM in experiment [4]; 19.2 µM in experiment [5]; 57200 nM in experiment [6]. The GI50 in experiment [7] was over 100000 nM. The TGI was over 100 µM in [1]; 63.8 µM in experiment [2]; 66.5 µM in experiment [3]; over 100 µM in [4]; 99.4 µM in [5]; over 100 µM in experiment [6]. In experiment [7], this compound registered a TGI of over 100 µM.

For `Oc1cccnc1[Se]`, the TGI in experiment [1], in experiment [2], in experiment [3], in experiment [4], in experiment [5] and in experiment [6] was over 100 µM in each case. In [7], this compound showed a TGI of over 100 µM.

For the compound `COc1ccc(-c2nc3ccc(-c4nc5ccc(N6CCN(c7ccccc7)CC6)cc5[nH]4)cc3[nH]2)cc1OC`, the GI50 in experiment [1] was over 100 µM; in experiment [2], 2.25 µM; in [3] it was 3.31 µM; in experiment [4], 1.83 µM; in experiment [5], 1.68 µM; in [6], 138 nM. Besides, the GI50 in experiment [7] was 1730 nM. Further, the TGI in experiment [1] was over 100 µM; in experiment [2] it was 4.93 µM; in [3] it was 10.9 µM; in experiment [4] it was 3.46 µM; in [5], 5.19 µM; in experiment [6], 0.649 µM. Also, the TGI in [7] is 3.32 µM.
